According to patent US20030170312A1, “Method for coating solid particles with a thermofusible agent, and resulting coated solid particles” (priority 2000, published 2003):

Experiment: Particle size (mean/median diameter, D50) before and after coating
Format: physicochemical
From the text: On FIG. 1, the distribution of the particles before and after coating has been represented. As shown in this figure, the set of coated particles has the same distribution as that of the uncoated particles, showing not only that the particles were evenly coated, but also that the amount of coating is less. Thus, it is observed that the mean diameter of the particles before coating is equal to 176 micrometers, while the mean diameter of the coated particles is equal to 180 micrometers. […] FIG. 2 represents in parallel the distribution of the particles before and after coating. As shown in this figure, the set of coated particles has the same distribution as those of the uncoated particles, showing not only that the particles were evenly coated, but also that the amount of coating is less. Thus, it is observed that the mean diameter of the particles before coating is equal to 60 micrometers, while the mean diameter of the coated particles is equal to 75 micrometers. The table below represents the mean size of the ibuprofen particles (D50) before and after coating. FIG. 5 represents in parallel the distribution of the particles before and after coating.

SMILES: CC(=O)Nc1ccc(O)cc1 [compound 99292402, Paracetamol]
- Median (D50) particle size (Example 4: paracetamol with Precirol ATO 5, theoretical 6% by mass): 326.1 μm

SMILES: CC(C)Cc1ccc(C(C)C(=O)O)cc1 (stereo not drawn) [5200I1014, ibuprofen]
- Mean (D50) size of the ibuprofen particles (Example 2: ibuprofen with PRECIROL in the proportion of 15%): 130.0 μm

SMILES: CC(C)Cc1ccc(C(C)C(=O)O)cc1 (stereo not drawn) [ibuprofen]
- mean diameter of the particles (Example 1: ibuprofen before and after coating with PRECIROL, coating 7% by weight): 176 micrometers
